Test results as given in patent US20070179060A1, “6-(Poly-substituted aryl)-4-aminopicolinates and their use as herbicides” (priority 2006, published 2007).
One block for each compound: values may come before it.

Assays:
[1] = tested on: lambsquarter (Chenopodium album); experiment: Postemergence herbicidal activity; type: in vivo; details: post-emergent, 140 g ai/ha, after 14 days; for pest or weed control at 140 g/ha: Chenopodium album, post-emergence, 336 h, read-out: % Control CHEAL
Outline: (§1)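 Plants grown 7-21 days in greenhouse (about 15 h photoperiod, 23-29° C day, 22-28° C night) to first or second true leaf stage. Compounds in acetone/water/isopropanol/DMSO carrier with crop oil concentrate and Triton X-155 sprayed overhead at 187 L/ha; controls received solvent blank. Plants sub-irrigated afterwards; dose responses analysed by probit analysis.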

[2] = tested on: redroot pigweed (Amaranthus retroflexus); experiment: Postemergence herbicidal activity; type: in vivo; details: post-emergent, 140 g ai/ha, after 14 days; for pest or weed control at 140 g/ha: Amaranthus retroflexus, post-emergence, 336 h, read-out: % Control AMARE
Outline: as §1

[3] = tested on: velvetleaf (Abutilon theophrasti); experiment: Postemergence herbicidal activity; type: in vivo; details: post-emergent, 140 g ai/ha, after 14 days; for pest or weed control at 140 g/ha: Abutilon theophrasti, post-emergence, 336 h, read-out: % Control ABUTH
Outline: as §1

[4] = tested on: lambsquarter (Chenopodium album); experiment: Preemergence herbicidal activity; type: in vivo; details: pre-emergent, 140 g ai/ha, after 20-22 days; for pest or weed control at 140 g/ha: Chenopodium album, pre-emergence, 480 h, read-out: % Control CHEAL
Outline: (§2)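 Seeds sown in 70:30 loam (pH about 8.1, about 1.5% organic matter) and sand mix, then sprayed preemergence at 187 L/ha with a track sprayer; controls received solvent blank. Pots kept in greenhouse, about 15 h photoperiod, about 23-29° C. day and 22-28° C. night, top-irrigated.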

[5] = tested on: redroot pigweed (Amaranthus retroflexus); experiment: Preemergence herbicidal activity; type: in vivo; details: pre-emergent, 140 g ai/ha, after 20-22 days; for pest or weed control at 140 g/ha: Amaranthus retroflexus, pre-emergence, 480 h, read-out: % Control AMARE
Outline: as §2

[6] = tested on: velvetleaf (Abutilon theophrasti); experiment: Preemergence herbicidal activity; type: in vivo; details: pre-emergent, 140 g ai/ha, after 20-22 days; for pest or weed control at 140 g/ha: Abutilon theophrasti, pre-emergence, 480 h, read-out: % Control ABUTH
Outline: as §2

Galium aparine = experiment: Postemergence herbicidal activity in cereal crops; type: in vivo; details: post-emergent, after 20-22 days; for pest or weed control at 17.5 g/ha: 17.5 g ai/ha; for pest or weed control at 70 g/ha: 70 g ai/ha
Protocol: (§3) When required to ensure good germination and healthy plants, a fungicide treatment and/or other chemical or physical treatment was applied. The plants were grown for 7-36 days in a greenhouse with an approximate 14 hour photoperiod which was maintained at about 18° C. during the day and 17° C. during the night. Nutrients and water were added on a regular basis and supplemental lighting was provided with overhead metal halide 1000-Watt lamps as necessary. The plants were employed for testing when they reached the second or third true leaf stage. […] The concentrated stock solutions obtained were diluted with 16 mL of an aqueous mixture containing acetone, water, isopropyl alcohol, DMSO, Agri-dex crop oil concentrate, and Triton® X-77 surfactant in a 64.7:26.0:6.7:2.0:0.7:0.01 v/v ratio to obtain spray solutions containing the highest application rates. […] Compound requirements are based upon a 12 mL application volume at a rate of 187 L/ha. Formulated compounds were applied to the plant material with an overhead Mandel track sprayer equipped with a […] nozzles calibrated to deliver 187 L/ha over an application area of 0.503 square meters at a spray height of 18 inches (43 cm) above average plant canopy height. Control plants were sprayed in the same manner with the blank. The treated plants and control plants were placed in a greenhouse as described above and watered by sub-irrigation to prevent wash-off of the test compounds.

Lamium purpureum = experiment: Postemergence herbicidal activity in cereal crops; type: in vivo; details: post-emergent, after 20-22 days; for pest or weed control at 17.5 g/ha: 17.5 g ai/ha; for pest or weed control at 70 g/ha: 70 g ai/ha
Protocol: as §3

Papaver rhoeas = experiment: Postemergence herbicidal activity in cereal crops; type: in vivo; details: post-emergent, after 20-22 days; for pest or weed control at 17.5 g/ha: 17.5 g ai/ha; for pest or weed control at 70 g/ha: 70 g ai/ha
Protocol: as §3

Veronica persica = experiment: Postemergence herbicidal activity in cereal crops; type: in vivo; details: post-emergent, after 20-22 days; for pest or weed control at 17.5 g/ha: 17.5 g ai/ha; for pest or weed control at 70 g/ha: 70 g ai/ha
Protocol: as §3

barley (Hordeum vulare) = experiment: Postemergence herbicidal activity in cereal crops; type: in vivo; details: crop, post-emergent, after 20-22 days; for pest or weed control at 17.5 g/ha: 17.5 g ai/ha; for pest or weed control at 70 g/ha: 70 g ai/ha
Protocol: as §3

[7] = tested on: wheat (Triticum aestivum); experiment: Postemergence herbicidal activity in cereal crops; type: in vivo; details: crop, post-emergent, after 20-22 days; for plant injury at 17.5 g/ha: 17.5 g ai/ha; for plant injury at 70 g/ha: 70 g ai/ha
Protocol: as §3

[8] = Galium aparine, post-emergence, 480 h, read-out: % Control GALAP
[9] = Lamium purpureum, post-emergence, 480 h, read-out: % Control LAMPU
[10] = Papaver rhoeas, post-emergence, 480 h, read-out: % Control PAPRH
[11] = Veronica persica, post-emergence, 480 h, read-out: % Control VERPE
[12] = Hordeum, post-emergence, 480 h, read-out: % Control HORVS
[13] = Triticum aestivum, post-emergence, 480 h, read-out: % Control TRZAS

Structure (SMILES): COC(=O)c1nc(-c2ccc(Cl)c(SC)c2F)cc(N)c1Cl [Compound 1]
% Control CHEAL [1]: 100%
% Control AMARE [2]: 100%
% Control ABUTH [3]: 85%
% Control CHEAL [4]: 90%
% Control AMARE [5]: 100%
% Control ABUTH [6]: 80%
% Control GALAP (Galium aparine; 35 g ai/ha): 85%
% Control LAMPU (Lamium purpureum; 35 g ai/ha): 80%
% Control PAPRH (Papaver rhoeas; 35 g ai/ha): 80%
% Control VERPE (Veronica persica; 35 g ai/ha): 50%
% Control HORVS (barley (Hordeum vulare); 35 g ai/ha): 10%
% Control TRZAS ([7]; 35 g ai/ha): 5%

melting point: 172 to 173 °C
Structure (SMILES): COC(=O)c1nc(-c2ccc(Cl)c(OC)c2F)c(F)c(N)c1Cl [Compound 14, 4-Amino-3-chloro-5-fluoro-6-(4-chloro-2-fluoro-3-methoxyphenyl)pyridine-2-carboxylic acid methyl ester]
pest or weed control at 140 g/ha [1]: 100%
pest or weed control at 140 g/ha [2]: 100%
pest or weed control at 140 g/ha [3]: 100%
pest or weed control at 140 g/ha [4]: 100%
pest or weed control at 140 g/ha [5]: 100%
pest or weed control at 140 g/ha [6]: 100%
pest or weed control at 35 g/ha (Galium aparine; Galium aparine, post-emergence, 480 h, 35 g ai/ha, read-out: % Control GALAP): 90%
pest or weed control at 35 g/ha (Lamium purpureum; Lamium purpureum, post-emergence, 480 h, 35 g ai/ha, read-out: % Control LAMPU): 95%
pest or weed control at 35 g/ha (Papaver rhoeas; Papaver rhoeas, post-emergence, 480 h, 35 g ai/ha, read-out: % Control PAPRH): 95%
pest or weed control at 35 g/ha (Veronica persica; Veronica persica, post-emergence, 480 h, 35 g ai/ha, read-out: % Control VERPE): 65%
pest or weed control at 35 g/ha (barley (Hordeum vulare); Hordeum, post-emergence, 480 h, 35 g ai/ha, read-out: % Control HORVS): 0%
plant injury at 35 g/ha ([7]; Triticum aestivum, post-emergence, 480 h, 35 g ai/ha, read-out: % Control TRZAS): 0%

melting point: 104 to 106 °C
Structure (SMILES): COC(=O)c1nc(-c2ccc(Cl)c(N(C)C)c2F)cc(N)c1Cl [Compound 16, 4-Amino-3-chloro-6-(4-chloro-3-dimethylamino-2-fluorophenyl)pyridine-2-carboxylic acid, methyl ester]
pest or weed control at 140 g/ha [1]: 100%
pest or weed control at 140 g/ha [2]: 100%
pest or weed control at 140 g/ha [3]: 100%
pest or weed control at 140 g/ha [4]: 100%
pest or weed control at 140 g/ha [5]: 100%
pest or weed control at 140 g/ha [6]: 90%
pest or weed control at 17.5 g/ha (Galium aparine; [8]): 95%
pest or weed control at 17.5 g/ha (Lamium purpureum; [9]): 100%
pest or weed control at 17.5 g/ha (Papaver rhoeas; [10]): 95%
pest or weed control at 17.5 g/ha (Veronica persica; [11]): 95%
pest or weed control at 17.5 g/ha (barley (Hordeum vulare); [12]): 10%
plant injury at 17.5 g/ha [7, 13]: 10%

melting point: 113 to 115 °C
Structure (SMILES): COC(=O)c1nc(-c2cc(N(C)C)c(Cl)cc2F)cc(N)c1Cl [Compound 26, 4-amino-3-chloro-6-(4-chloro-5-dimethylamino-2-fluorophenyl)pyridine-2-carboxylic acid methyl ester]
pest or weed control at 140 g/ha [1]: 100%
pest or weed control at 140 g/ha [2]: 100%
pest or weed control at 140 g/ha [3]: 100%
pest or weed control at 140 g/ha [4]: 90%
pest or weed control at 140 g/ha [5]: 10%
pest or weed control at 140 g/ha [6]: 10%
pest or weed control at 70 g/ha (Galium aparine; [8]): 80%
pest or weed control at 70 g/ha (Lamium purpureum; [9]): 95%
pest or weed control at 70 g/ha (Papaver rhoeas; [10]): 95%
pest or weed control at 70 g/ha (Veronica persica; [11]): 40%
pest or weed control at 70 g/ha (barley (Hordeum vulare); [12]): 10%
plant injury at 70 g/ha [7, 13]: 0%

Structure (SMILES): COC(=O)c1nc(-c2cc(OC)c(Cl)cc2F)cc(N)c1Cl [Compound 43, 4-Amino-3-chloro-6-(4-chloro-2-fluoro-5-methoxyphenyl)pyridine-2-carboxylic acid methyl ester]
pest or weed control at 140 g/ha [1]: 100%
pest or weed control at 140 g/ha [2]: 100%
pest or weed control at 140 g/ha [3]: 100%
pest or weed control at 140 g/ha [4]: 100%
pest or weed control at 140 g/ha [5]: 100%
pest or weed control at 140 g/ha [6]: 98%
pest or weed control at 70 g/ha (Galium aparine; [8]): 65%
pest or weed control at 70 g/ha (Lamium purpureum; [9]): 99%
pest or weed control at 70 g/ha (Papaver rhoeas; [10]): 85%
pest or weed control at 70 g/ha (Veronica persica; [11]): 30%
pest or weed control at 70 g/ha (barley (Hordeum vulare); [12]): 5%
plant injury at 70 g/ha [7, 13]: 0%

Structure (SMILES): COC(=O)c1nc(-c2c(F)cc(Cl)c(N(C)C)c2F)cc(N)c1Cl [Compound 50, 4-Amino-3-chloro-6-[4-chloro-3-(dimethylamino)-2,6-difluorophenyl]pyridine-2-carboxylic acid, methyl ester]
pest or weed control at 140 g/ha [1]: 100%
pest or weed control at 140 g/ha [2]: 100%
pest or weed control at 140 g/ha [3]: 100%
pest or weed control at 140 g/ha [4]: 100%
pest or weed control at 140 g/ha [5]: 100%
pest or weed control at 140 g/ha [6]: 100%
pest or weed control at 70 g/ha (Galium aparine; [8]): 95%
pest or weed control at 70 g/ha (Lamium purpureum; [9]): 100%
pest or weed control at 70 g/ha (Papaver rhoeas; [10]): 95%
pest or weed control at 70 g/ha (Veronica persica; [11]): 60%
pest or weed control at 70 g/ha (barley (Hordeum vulare); [12]): 0%
plant injury at 70 g/ha [7, 13]: 0%

melting point: 145 to 147 °C
Structure (SMILES): COC(=O)c1nc(-c2ccc(C(F)F)c(OC)c2F)cc(N)c1Cl [Compound 71, 4-Amino-3-chloro-6-(4-difluoromethyl-2-fluoro-3-methoxyphenyl)pyridine-2-carboxylic acid, methyl ester]
pest or weed control at 140 g/ha [1]: 85%
pest or weed control at 140 g/ha [2]: 80%
pest or weed control at 140 g/ha [3]: 100%
pest or weed control at 17.5 g/ha (Galium aparine; [8]): 95%
pest or weed control at 17.5 g/ha (Lamium purpureum; [9]): 95%
pest or weed control at 17.5 g/ha (Papaver rhoeas; [10]): 95%
pest or weed control at 17.5 g/ha (Veronica persica; [11]): 50%
pest or weed control at 17.5 g/ha (barley (Hordeum vulare); [12]): 0%
plant injury at 17.5 g/ha [7, 13]: 0%

melting point: 128 to 130 °C
Structure (SMILES): COC(=O)c1nc(-c2cc(OC)c(F)cc2F)cc(N)c1Cl [Compound 73, 4-Amino-3-chloro-6-(2,4-difluoro-5-methoxyphenyl)pyridine-2-carboxylic acid, methyl ester]
pest or weed control at 140 g/ha [1]: 100%
pest or weed control at 140 g/ha [2]: 100%
pest or weed control at 140 g/ha [3]: 90%
pest or weed control at 70 g/ha (Galium aparine; [8]): 95%
pest or weed control at 70 g/ha (Lamium purpureum; [9]): 99%
pest or weed control at 70 g/ha (Papaver rhoeas; [10]): 95%
pest or weed control at 70 g/ha (Veronica persica; [11]): 60%
pest or weed control at 70 g/ha (barley (Hordeum vulare); [12]): 0%
plant injury at 70 g/ha [7, 13]: 0%

Structure (SMILES): COc1cc(-c2cc(N)c(Cl)c(C(=O)O)n2)c(F)cc1Cl [Compound 101, 4-Amino-3-chloro-6-(4-chloro-2-fluoro-5-methoxyphenyl)pyridine-2-carboxylic acid]
pest or weed control at 140 g/ha [1]: 100%
pest or weed control at 140 g/ha [2]: 100%
pest or weed control at 140 g/ha [3]: 100%
pest or weed control at 140 g/ha [4]: 100%
pest or weed control at 140 g/ha [5]: 100%
pest or weed control at 140 g/ha [6]: 100%
pest or weed control at 70 g/ha (Galium aparine; [8]): 60%
pest or weed control at 70 g/ha (Lamium purpureum; [9]): 99%
pest or weed control at 70 g/ha (Papaver rhoeas; [10]): 100%
pest or weed control at 70 g/ha (Veronica persica; [11]): 60%
pest or weed control at 70 g/ha (barley (Hordeum vulare); [12]): 5%
plant injury at 70 g/ha [7, 13]: 10%
